Here are results for 20 compounds from patent US20230091608A1, “COMPOUND AND DIAGNOSTIC SYSTEM COMPRISING SAID COMPOUND FOR THE GUSTATORY DETECTION OF INFLAMMATIONS IN THE ORAL CAVITY” (Julius-Maximilians-Universitaet Wuerzburg, priority 2019, published 2023).

The test concerns aminopeptidase (AP). The experiment in a line: Cleavage of [Ia-X] constructs by aminopeptidase (AP), LC/MS for complete degradation. The test is classed as biochemical. On the procedure:
To trigger maximum gustatory perception, the last amino acid from the modified denatonium must also be removed by the aminopeptidase.
The resulting constructs were incubated with AP for 24 h and analyzed by LC/MS for complete degradation (Table 2).
For the compound `NC(=O)C[C@H](N)C(=O)O` [Asparagine], the “Detectable after 24 h incubation with AP” value is “+”.

`N[C@@H](CC(=O)O)C(=O)O` [Aspartic acid]: the “Detectable after 24 h incubation with AP” value was “+”.

`N[C@@H](CS)C(=O)O` [Cysteine]: the “Detectable after 24 h incubation with AP” value is listed as “−”.

On to `N[C@@H](CCC(=O)O)C(=O)O` [Glutamic acid], for which the “Detectable after 24 h incubation with AP” value is given as “−”.

`NC(=O)CC[C@H](N)C(=O)O` [Glutamine]: the “Detectable after 24 h incubation with AP” value was “+”.

Consider `NCC(=O)O` [Glycine], for which the “Detectable after 24 h incubation with AP” value is given as “+”.

`N[C@@H](Cc1c[nH]cn1)C(=O)O` [Histidine]: the “Detectable after 24 h incubation with AP” value is “+”.

For `CC[C@H](C)[C@H](N)C(=O)O` [Isoleucine], the “Detectable after 24 h incubation with AP” value is “+”.

For `CC(C)C[C@H](N)C(=O)O` [Leucine], the “Detectable after 24 h incubation with AP” value was “−”.

For `CSCC[C@H](N)C(=O)O` [Methionine], the “Detectable after 24 h incubation with AP” value is “−”.

`N[C@@H](Cc1ccccc1)C(=O)O` [Phenylalanine]: the “Detectable after 24 h incubation with AP” value is “−”.

As for `N[C@@H](CO)C(=O)O` [Serine], the “Detectable after 24 h incubation with AP” value is reported as “−”.

Turning to `C[C@@H](O)[C@H](N)C(=O)O` [Threonine], the “Detectable after 24 h incubation with AP” value is listed as “+”.

Consider `N[C@@H](Cc1c[nH]c2ccccc12)C(=O)O` [Tryptophan], for which the “Detectable after 24 h incubation with AP” value was “+”.

Consider `CC(C)[C@H](N)C(=O)O` [Valine], for which the “Detectable after 24 h incubation with AP” value was “+”.

Alanine: the “Detectable after 24 h incubation with AP” value is “−”.

Consider Arginine, for which the “Detectable after 24 h incubation with AP” value is “−”.

As to Lysine, the “Detectable after 24 h incubation with AP” value is “−”.

In the case of Proline, the “Detectable after 24 h incubation with AP” value was “+”.

As to Tyrosine, the “Detectable after 24 h incubation with AP” value was “−”.
